From US9302999B2, “Substituted triazoles as herbicides” (E. I. DU PONT DE NEMOURS AND COMPANY, priority 2012, dated 2016)

Legend:
Type in all cases: in vivo
[1] = test system: barnyardgrass (Echinochloa crus-galli); experiment: Test A pre-/postemergence: barnyardgrass; settings: for Barnyardgrass plant response rating: Postemergence; for Plant response rating, Barnyardgrass: Preemergence
In short: (§1)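 Injury is scored visually on a scale where 0 means no effect and 100 complete control, comparing treated with untreated plants after approximately ten greenhouse days. Both preemergence and postemergence applications are made at the same time.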

[2] = test system: velvetleaf (Abutilon theophrasti); experiment: Test A pre-/postemergence: velvetleaf; settings: for Velvetleaf plant response rating: Postemergence; for Plant response rating, Velvetleaf: Preemergence
In short: as §1

[3] = test system: wheat (Triticum aestivum); experiment: Test A pre-/postemergence: wheat; settings: for Wheat plant response rating: Postemergence; for Plant response rating, Wheat: Preemergence
In short: as §1

[4] = test system: crabgrass, large (large crabgrass, Digitaria sanguinalis); experiment: Test A pre-/postemergence: crabgrass, large; settings: for Crabgrass, Large plant response rating: Postemergence; for Plant response rating, Crabgrass, Large: Preemergence
In short: as §1

[5] = test system: foxtail, giant (giant foxtail, Setaria faberii); experiment: Test A pre-/postemergence: foxtail, giant; settings: for Foxtail, Giant plant response rating: Postemergence; for Plant response rating, Foxtail, Giant: Preemergence
In short: as §1

[6] = test system: morningglory (Ipomoea spp.); experiment: Test A pre-/postemergence: morningglory; settings: for Morningglory plant response rating: Postemergence; for Plant response rating, Morningglory: Preemergence
In short: as §1

corn (Zea mays) = experiment: Test A pre-/postemergence: corn; settings: for Corn plant response rating: Postemergence; for Plant response rating, Corn: Preemergence
In short: as §1

[7] = test system: sedge, umbrella (small-flower umbrella sedge, Cyperus difformis); experiment: Test C flooded paddy test: sedge, umbrella; settings: scale 0 to 100 (0 no effect, 100 complete control)
In short: (§2)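 Plants were grown to the 2-leaf stage, pots flooded to 3 cm above soil, and test compounds applied directly to the paddy water, with that depth held throughout. After 13 to 15 days in a greenhouse, injury was visually rated against controls on a 0 (no effect) to 100 (complete control) scale.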

[8] = test system: barnyardgrass (Echinochloa crus-galli); experiment: Test C flooded paddy test: barnyardgrass; settings: scale 0 to 100 (0 no effect, 100 complete control)
In short: as §2

rice (Oryza sativa) = experiment: Test C flooded paddy test: rice; settings: scale 0 to 100 (0 no effect, 100 complete control)
In short: as §2

[9] = test system: ducksalad (Heteranthera limosa); experiment: Test C flooded paddy test: ducksalad; settings: scale 0 to 100 (0 no effect, 100 complete control)
In short: as §2

[10] = test system: pigweed (Amaranthus retroflexus); experiment: Test A pre-/postemergence: pigweed; settings: for Pigweed plant response rating: Postemergence; for Plant response rating, Pigweed: Preemergence
In short: as §1

[11] = 125 g ai/ha, 0 to 100 scale, 0 is no effect, 100 is complete control
[12] = 500 g ai/ha, visual rating on 0 to 100 scale (0 no effect, 100 complete control), approximately ten days
[13] = 125 g ai/ha, 0 to 100 scale (0 no effect, 100 complete control)
[14] = 500 g ai/ha, 0 to 100 scale, 0 is no effect, 100 is complete control
[15] = Flood (flooded paddy test), 62 g ai/ha, visual rating after 13 to 15 days
[16] = Flood (flooded paddy test), 125 g ai/ha, visual rating after 13 to 15 days
[17] = Flood (flooded paddy test), 250 g ai/ha, visual rating after 13 to 15 days

Cc1nn(-c2cccc([N+](=O)[O-])c2)nc1C(=O)c1cccc(C(F)(F)F)c1 [Compound 62]
10: Barnyardgrass plant response rating [1, 12] | Pigweed plant response rating [10, 12]
0: Barnyardgrass plant response rating [1, 11] | Plant response rating, Barnyardgrass [1, 13] | Plant response rating, Barnyardgrass [1, 14] | Velvetleaf plant response rating [2, 11] | Velvetleaf plant response rating [2, 12] | Plant response rating, Velvetleaf [2, 13] | Plant response rating, Velvetleaf [2, 14] | Wheat plant response rating [3, 11] | Wheat plant response rating [3, 12] | Plant response rating, Wheat [3, 13] | Plant response rating, Wheat [3, 14] | Crabgrass, Large plant response rating [4, 11] | Crabgrass, Large plant response rating [4, 12] | Plant response rating, Crabgrass, Large [4, 13] | Plant response rating, Crabgrass, Large [4, 14] | Foxtail, Giant plant response rating [5, 11] | Foxtail, Giant plant response rating [5, 12] | Plant response rating, Foxtail, Giant [5, 13] | Plant response rating, Foxtail, Giant [5, 14] | Morningglory plant response rating [6, 11] | Morningglory plant response rating [6, 12] | Plant response rating, Morningglory [6, 13] | Plant response rating, Morningglory [6, 14] | Corn plant response rating (corn (Zea mays); [11]) | Corn plant response rating (corn (Zea mays); [12]) | Plant response rating, Corn (corn (Zea mays); [13]) | Plant response rating, Corn (corn (Zea mays); [14]) | Plant response rating, Sedge, Umbrella [7, 15] | Plant response rating, Sedge, Umbrella [7, 16] | Plant response rating, Sedge, Umbrella [7, 17] | Plant response rating, Sedge, Umbrella ([7]; Flood, 31 g ai/ha) | Plant response rating, Barnyardgrass [8, 15] | Plant response rating, Barnyardgrass [8, 16] | Plant response rating, Barnyardgrass [8, 17] | Plant response rating, Barnyardgrass ([8]; Flood, 31 g ai/ha) | Plant response rating, Rice (rice (Oryza sativa); [15]) | Plant response rating, Rice (rice (Oryza sativa); [16]) | Plant response rating, Rice (rice (Oryza sativa); [17]) | Plant response rating, Rice (rice (Oryza sativa); Flood, 31 g ai/ha) | Plant response rating, Ducksalad [9, 15] | Plant response rating, Ducksalad [9, 16] | Plant response rating, Ducksalad [9, 17] | Plant response rating, Ducksalad ([9]; Flood, 31 g ai/ha) | Pigweed plant response rating [10, 11] | Plant response rating, Pigweed [10, 13] | Plant response rating, Pigweed [10, 14]

Cc1nn(-c2ccccc2[N+](=O)[O-])nc1C(=O)c1cccc(C(F)(F)F)c1 [Compound 63]
10: Pigweed plant response rating [10, 12]
0: Barnyardgrass plant response rating [1, 11] | Barnyardgrass plant response rating [1, 12] | Plant response rating, Barnyardgrass [1, 13] | Plant response rating, Barnyardgrass [1, 14] | Velvetleaf plant response rating [2, 11] | Velvetleaf plant response rating [2, 12] | Plant response rating, Velvetleaf [2, 13] | Plant response rating, Velvetleaf [2, 14] | Wheat plant response rating [3, 11] | Wheat plant response rating [3, 12] | Plant response rating, Wheat [3, 13] | Plant response rating, Wheat [3, 14] | Crabgrass, Large plant response rating [4, 11] | Crabgrass, Large plant response rating [4, 12] | Plant response rating, Crabgrass, Large [4, 13] | Plant response rating, Crabgrass, Large [4, 14] | Foxtail, Giant plant response rating [5, 11] | Foxtail, Giant plant response rating [5, 12] | Plant response rating, Foxtail, Giant [5, 13] | Plant response rating, Foxtail, Giant [5, 14] | Morningglory plant response rating [6, 11] | Morningglory plant response rating [6, 12] | Plant response rating, Morningglory [6, 13] | Plant response rating, Morningglory [6, 14] | Corn plant response rating (corn (Zea mays); [11]) | Corn plant response rating (corn (Zea mays); [12]) | Plant response rating, Corn (corn (Zea mays); [13]) | Plant response rating, Corn (corn (Zea mays); [14]) | Plant response rating, Sedge, Umbrella [7, 15] | Plant response rating, Sedge, Umbrella [7, 16] | Plant response rating, Sedge, Umbrella [7, 17] | Plant response rating, Sedge, Umbrella ([7]; Flood, 31 g ai/ha) | Plant response rating, Barnyardgrass [8, 15] | Plant response rating, Barnyardgrass [8, 16] | Plant response rating, Barnyardgrass [8, 17] | Plant response rating, Barnyardgrass ([8]; Flood, 31 g ai/ha) | Plant response rating, Rice (rice (Oryza sativa); [15]) | Plant response rating, Rice (rice (Oryza sativa); [16]) | Plant response rating, Rice (rice (Oryza sativa); [17]) | Plant response rating, Rice (rice (Oryza sativa); Flood, 31 g ai/ha) | Plant response rating, Ducksalad [9, 15] | Plant response rating, Ducksalad [9, 16] | Plant response rating, Ducksalad [9, 17] | Plant response rating, Ducksalad ([9]; Flood, 31 g ai/ha) | Pigweed plant response rating [10, 11] | Plant response rating, Pigweed [10, 13] | Plant response rating, Pigweed [10, 14]

Cc1nn(-c2cncc(C(F)(F)F)c2)nc1C(=O)c1cccc(C(F)(F)F)c1 [Compound 66]
0: Barnyardgrass plant response rating [1, 11] | Plant response rating, Barnyardgrass [1, 13] | Plant response rating, Barnyardgrass [1, 14] | Velvetleaf plant response rating [2, 11] | Plant response rating, Velvetleaf [2, 13] | Plant response rating, Velvetleaf [2, 14] | Wheat plant response rating [3, 11] | Plant response rating, Wheat [3, 13] | Plant response rating, Wheat [3, 14] | Foxtail, Giant plant response rating [5, 11] | Morningglory plant response rating [6, 11] | Plant response rating, Morningglory [6, 13] | Plant response rating, Morningglory [6, 14] | Corn plant response rating (corn (Zea mays); [11]) | Plant response rating, Corn (corn (Zea mays); [13]) | Plant response rating, Corn (corn (Zea mays); [14]) | Plant response rating, Sedge, Umbrella [7, 15] | Plant response rating, Sedge, Umbrella [7, 17] | Plant response rating, Barnyardgrass [8, 15] | Plant response rating, Barnyardgrass [8, 17] | Plant response rating, Rice (rice (Oryza sativa); [15]) | Plant response rating, Rice (rice (Oryza sativa); [17]) | Plant response rating, Ducksalad [9, 15] | Plant response rating, Ducksalad [9, 17] | Plant response rating, Pigweed [10, 13]
30: Pigweed plant response rating [10, 12]
50: Plant response rating, Crabgrass, Large [4, 14]
70: Plant response rating, Foxtail, Giant [5, 14]
10: Barnyardgrass plant response rating [1, 12] | Velvetleaf plant response rating [2, 12] | Wheat plant response rating [3, 12] | Crabgrass, Large plant response rating [4, 11] | Crabgrass, Large plant response rating [4, 12] | Plant response rating, Crabgrass, Large [4, 13] | Foxtail, Giant plant response rating [5, 12] | Plant response rating, Foxtail, Giant [5, 13] | Morningglory plant response rating [6, 12] | Corn plant response rating (corn (Zea mays); [12]) | Pigweed plant response rating [10, 11] | Plant response rating, Pigweed [10, 14]
